Source: US11149035B2, “Chemical compounds as H—PGDS inhibitors” (GlaxoSmithKline Intellectual Property Development Limited, priority 2017, dated 2021)

Biological target: T1, haematopoietic prostaglandin D synthase (H-PGDS) (Homo sapiens, UniProt O60760)
T1 construct: Full length human H-PGDS cDNA (Invitrogen Ultimate ORF IOH13026) was amplified by PCR; 6-His (N); TEV protease cleavage site (N); made in house; host or cells: E. coli BL21 (DE3*)
Assay: H-PGDS RapidFire high throughput mass spectrometry assay (conversion of PGH2 to PGD2)
Format: biochemical
Settings: 10 nM H-PGDS, PGH2 formed in situ by COX-2 from arachidonic acid; four parameter curve fit; read-out: Potency Range (mean pIC50) (converted)
Description: The H-PGDS RapidFire™ mass spectrometric assay monitors conversion of prostaglandin H2 (PGH2) to prostaglandin D2 (PGD2) by haematopoietic prostaglandin D synthase (H-PGDS). In the assay format described here, the substrate (PGH2) is formed in situ by the action of cyclooxygenase-2 on arachidonic acid. This first step is set up to be fast, and generates a burst of PGH2 at ˜10 μM. The PGH2 is then further converted to PGD2 by the H-PGDS enzyme. […] Plates are then read on the RapidFire™ high throughput solid phase extraction system (Agilent) which incorporates a solid phase extraction step coupled to a triple quadrupole mass spectrometer (AB SCIEX). Relative levels of PGD2 and PGF2α, which acts as a surrogate for substrate, are measured and a percent conversion calculated. Inhibitors are characterised as compounds which lower the conversion of PGH2 to PGD2.
Full length human H-PGDS cDNA (Invitrogen Ultimate ORF IOH13026) was amplified by PCR with the addition of a 5′ 6-His tag and TEV protease cleavage site. The PCR product was digested with NdeI and XhoI and ligated into pET22b+ (Merck Novagen®). Expression was carried out in E. coli strain BL21 (DE3*) using auto-induction Overnight Express™ Instant TB medium (Merck Novagen®) supplemented with 1% glycerol. The culture was first grown at 37° C. and the temperature was reduced to 25° C. when OD600 reached 2.0. Cells were harvested by centrifugation after a further 18 hours. 10 g of E. coli cell pellet was suspended to a total volume of 80 mL in lysis buffer (20 mM Tris-Cl pH 7.5, 300 mM NaCl, 20 mM imidazole, 5 mM β-mercaptoethanol, 10% glycerol). 1 mg/mL protease inhibitors (Protease Inhibitor Cocktail Set III, Merck Calbiochem®) and 1 mg/mL lysozyme were added to the cell suspension. The suspension was then sonicated for 5 min (UltraSonic Processor VCX 750, Cole-Parmer Instrument Co.) with a micro probe (50% amplitude, 10 sec on/off) and then centrifuged at 100,000 g for 90 minutes (at 4° C.). The supernatant was loaded onto a Ni-NTA HiTrap column (5 mL, GE Healthcare, pre-equilibrated in lysis buffer). The column was washed with 10 column volumes of lysis buffer and eluted with lysis buffer containing 500 mM imidazole. The pooled protein peak fractions were concentrated using a 10 kDa centrifugal filter at 3500 g and 4° C. (Amicon Ultra-15 centrifugal filter unit with Ultracel-10 membrane from Millipore). Further purification of the concentrated protein was carried out using gel filtration chromatography on a HiLoad 26/600 Superdex 75 preparative grade column (GE Healthcare Life Sciences) using 50 mM Tris pH 7.5, 50 mM NaCl, 1 mM dithiothreitol, 1 mM MgCl2. Fractions containing the protein were pooled, concentrated as described above, and stored at −80° C.
The full length human COX-2 gene (accession number L15326) was amplified by PCR to generate an EcoRI—HindIII fragment containing an in-frame FLAG tag. This was subcloned into pFastBac 1 (Invitrogen). The COX-2 FLAG plasmid was recombined into the baculovirus genome according to the BAC-to-BAC protocol described by Invitrogen. Transfection into Spodoptera frugiperda (Sf9) insect cells was performed using Cellfectin (Invitrogen), according to the manufacturer's protocol. Super Sf9 cells were cultured in EX420 media (SAFC Biosciences) to a density of approximately 1.5×10^6 cells/mL within a wave bioreactor. Recombinant virus was added at a Multiplicity of Infection (MOI) of 5 and the culture was allowed to continue for 3 days. Cells were harvested using a continuous feed centrifuge run at 2500 g at a rate of approximately 2 L/min with cooling. The resultant cell slurry was re-centrifuged in pots (2500 g, 20 min, 4° C.) and the cell paste was stored at −80° C. 342 g of cell paste was re-suspended to a final volume of 1600 mL in a buffer of 20 mM Tris-Cl pH 7.4, 150 mM NaCl, 0.1 mM EDTA, 1.3% w/v n-octyl-[…] containing 20 Complete EDTA-free Protease Inhibitor Cocktail tablets (Roche Applied Science). […]

T1 sequence (O60760 whole entry): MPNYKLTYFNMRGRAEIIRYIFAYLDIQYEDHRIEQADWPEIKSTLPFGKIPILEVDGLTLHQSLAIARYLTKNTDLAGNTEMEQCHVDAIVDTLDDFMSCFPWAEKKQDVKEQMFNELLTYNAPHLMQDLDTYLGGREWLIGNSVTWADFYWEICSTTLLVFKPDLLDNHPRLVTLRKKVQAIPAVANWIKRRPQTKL

Question: How did the IC50 turn out when `O=C(N[C@H]1C[C@](O)(C(F)(F)F)C1)c1cnc2nc(C3CC3)ccc2c1` [Example 53, 7-cyclopropyl-N-((1s,3s)-3-hydroxy-3-(trifluoromethyl)cyclobutyl)-1,8-naphthyridine-3-carboxamide] was run?
Answer: Its IC50 is 100 to 1000 nM.

Question: Which IC50 does the source give for `O=C(N[C@H]1CC[C@H](N2CC(F)(F)C2)CC1)c1cnc2nc(C3CC3)ccc2c1` [Example 54, 7-Cyclopropyl-N-(trans-4-(3,3-difluoroazetidin-1-yl)cyclohexyl)-1,8-naphthyridine-3-carboxamide] here?
Answer: Its IC50 is 10 to 79.4 nM.

Question: How did the IC50 turn out when `CC(C)(O)[C@H]1CC[C@H](NC(=O)c2cnc3nc(OCC(F)(F)F)ccc3c2)CC1` [Example 55, N-(trans-4-(2-Hydroxypropan-2-yl)cyclohexyl)-7-(2,2,2-trifluoroethoxy)-1,8-naphthyridine-3-carboxamide] was run?
Answer: Its IC50 is 100 to 1000 nM.

Question: Which IC50 does the source give for `CCOc1ccc2cc(C(=O)N[C@H]3CC[C@H](C(C)(C)O)CC3)cnc2n1` [Example 56, 7-Ethoxy-N-(trans-4-(2-hydroxypropan-2-yl)cyclohexyl)-1,8-naphthyridine-3-carboxamide] here?
Answer: Its IC50 is 10 to 79.4 nM.

Question: With `C[C@H]1CCN1c1nc2ncc(C(=O)N[C@H]3CC[C@H](C(C)(C)O)CC3)cc2cc1Cl` [Example 58, 6-Chloro-N-(trans-4-(2-hydroxypropan-2-yl)cyclohexyl)-7-((S)-2-methylazetidin-1-yl)-1,8-naphthyridine-3-carboxamide] as the compound, how does the IC50 read?
Answer: Its IC50 is < 10 nM.

Question: `C[C@H]1CCN1c1nc2ncc(C(=O)N[C@H]3CC[C@](C)(O)CC3)cc2cc1Cl` [Example 59, 6-Chloro-N-((1r,4s)-4-hydroxy-4-methylcyclohexyl)-7-((S)-2-methylazetidin-1-yl)-1,8-naphthyridine-3-carboxamide] was tested. Which IC50 did it give?
Answer: Its IC50 is < 10 nM.

Question: Which IC50 does the source give for `C[C@H]1CCN1c1nc2ncc(C(=O)N[C@H]3CCNC3=O)cc2cc1Cl` [Example 60, 6-Chloro-7-((S)-2-methylazetidin-1-yl)-N—((S)-2-oxopyrrolidin-3-yl)-1,8-naphthyridine-3-carboxamide] here?
Answer: The IC50 was < 10 nM.

Question: With `C[C@H]1CCN1c1nc2ncc(C(=O)NC3CC4(C3)CC(C(C)(C)O)C4)cc2cc1Cl` (stereo partly drawn) [Example 61, (S)-6-Chloro-N-(6-(2-hydroxypropan-2-yl)spiro[3.3]heptan-2-yl)-7-(2-methylazetidin-1-yl)-1,8-naphthyridine-3-carboxamide] as the compound, how does the IC50 read?
Answer: The IC50 was < 10 nM.

Question: Which IC50 does the source give for `COc1nc2ncc(C(=O)N[C@H]3CC[C@H](C(C)(C)O)CC3)cc2cc1Cl` [Example 62, 6-Chloro-N-(trans-4-(2-hydroxypropan-2-yl)cyclohexyl)-7-methoxy-1,8-naphthyridine-3-carboxamide] here?
Answer: Its IC50 is < 10 nM.

Question: Which IC50 does the source give for `C[C@H]1CCN1c1nc2ncc(C(=O)N[C@H]3C[C@@](C)(O)C3)cc2cc1Cl` [Example 63, 6-chloro-N-((1s,3R)-3-hydroxy-3-methylcyclobutyl)-7-((S)-2-methylazetidin-1-yl)-1,8-naphthyridine-3-carboxamide] here?
Answer: The IC50 was < 10 nM.

Question: For `C[C@H]1CCN1c1nc2ncc(C(=O)N[C@H]3C[C@](C)(O)C3)cc2cc1Cl` [Example 64, 6-Chloro-N-((1r,3S)-3-hydroxy-3-methylcyclobutyl)-7-((S)-2-methylazetidin-1-yl)-1,8-naphthyridine-3-carboxamide], which IC50 is on record?
Answer: Its IC50 is < 10 nM.

Question: Which IC50 does the source give for `C[C@H]1CCN1c1nc2ncc(C(=O)N[C@H]3C[C@H](C(C)(C)O)C3)cc2cc1Cl` [Example 65, 6-Chloro-N-(trans-3-(2-hydroxypropan-2-yl)cyclobutyl)-7-((S)-2-methylazetidin-1-yl)-1,8-naphthyridine-3-carboxamide] here?
Answer: The IC50 was < 10 nM.

Question: Which IC50 does the source give for `C[C@H]1CCN1c1nc2ncc(C(=O)N[C@H]3C[C@](O)(C(F)(F)F)C3)cc2cc1Cl` [Example 66, 6-Chloro-N-((1s,3R)-3-hydroxy-3-(trifluoromethyl)cyclobutyl)-7-((S)-2-methylazetidin-1-yl)-1,8-naphthyridine-3-carboxamide] here?
Answer: Its IC50 is < 10 nM.

Question: With `C[C@@H]1CNC(=O)[C@H]1NC(=O)c1cnc2nc(N3CC[C@@H]3C)c(Cl)cc2c1` [Example 67, 6-Chloro-N-((3S,4R)-4-methyl-2-oxopyrrolidin-3-yl)-7-((S)-2-methylazetidin-1-yl)-1,8-naphthyridine-3-carboxamide] as the compound, how does the IC50 read?
Answer: Its IC50 is < 10 nM.

Question: How did the IC50 turn out when `O=C(N[C@H]1C[C@@H](N[C@H](CO)C(F)(F)F)C1)c1cnc2nc(C3CC3)ccc2c1` [Example 68, 7-Cyclopropyl-N-(cis-3-(((R)-1,1,1-trifluoro-3-hydroxypropan-2-yl)amino)cyclobutyl)-1,8-naphthyridine-3-carboxamide] was run?
Answer: The IC50 was 100 to 1000 nM.

Question: How did the IC50 turn out when `O=C(N[C@H]1C[C@H](N[C@H](CO)C(F)(F)F)C1)c1cnc2nc(C3CC3)ccc2c1` [Example 69, 7-Cyclopropyl-N-(trans-3-(((R)-1,1,1-trifluoro-3-hydroxypropan-2-yl)amino)cyclobutyl)-1,8-naphthyridine-3-carboxamide] was run?
Answer: The IC50 was 10 to 79.4 nM.

Question: With `CSc1ncc2cc(C(=O)N[C@H]3CC[C@H](C(C)(C)O)CC3)cnc2n1` [Example 70, N-(trans-4-(2-Hydroxypropan-2-yl)cyclohexyl)-2-(methylthio)pyrido[2,3-d]pyrimidine-6-carboxamide] as the compound, how does the IC50 read?
Answer: The IC50 was < 10 nM.

Question: Which IC50 does the source give for `O=C(N[C@H]1CCNC1=O)c1cnc2nc(C3CC3)c(Cl)cc2c1` [Example 71, (S)-6-Chloro-7-cyclopropyl-N-(2-oxopyrrolidin-3-yl)-1,8-naphthyridine-3-carboxamide] here?
Answer: Its IC50 is < 10 nM.

Question: For `CC(C)(O)[C@H]1CC[C@H](NC(=O)c2cnc3nc(C4CCC4)ccc3c2)CC1` [Example 72, 7-Cyclobutyl-N-(trans-4-(2-hydroxypropan-2-yl)cyclohexyl)-1,8-naphthyridine-3-carboxamide], which IC50 is on record?
Answer: Its IC50 is 10 to 79.4 nM.

Question: How did the IC50 turn out when `CC(C)(O)[C@H]1C[C@H](NC(=O)c2cnc3nc(C4CC4)c(Cl)cc3c2)C1` [Example 73, 6-Chloro-7-cyclopropyl-N-(trans-3-(2-hydroxypropan-2-yl)cyclobutyl)-1,8-naphthyridine-3-carboxamide] was run?
Answer: The IC50 was < 10 nM.

Question: For `C[C@]1(O)CC[C@H](NC(=O)c2cnc3nc(C4CC4)c(Cl)cc3c2)CC1` [Example 74, 6-Chloro-7-cyclopropyl-N-((1r,4r)-4-hydroxy-4-methylcyclohexyl)-1,8-naphthyridine-3-carboxamide ethyl acetate solvate], which IC50 is on record?
Answer: The IC50 was < 10 nM.

Question: With `C[C@]1(O)C[C@H](NC(=O)c2cnc3nc(C4CC4)c(Cl)cc3c2)C1` [Example 75, 6-Chloro-7-cyclopropyl-N-((1r,3r)-3-hydroxy-3-methylcyclobutyl)-1,8-naphthyridine-3-carboxamide] as the compound, how does the IC50 read?
Answer: The IC50 was 10 to 79.4 nM.

Question: Which IC50 does the source give for `C[C@]1(O)C[C@@H](NC(=O)c2cnc3nc(C4CC4)c(Cl)cc3c2)C1` [Example 76, 6-Chloro-7-cyclopropyl-N-((1s,3s)-3-hydroxy-3-methylcyclobutyl)-1,8-naphthyridine-3-carboxamide] here?
Answer: The IC50 was < 10 nM.

Question: For `O=C(N[C@H]1C[C@](O)(C(F)(F)F)C1)c1cnc2nc(C3CC3)c(Cl)cc2c1` [Example 77, 6-Chloro-7-cyclopropyl-N-((1s,3s)-3-hydroxy-3-(trifluoromethyl)cyclobutyl)-1,8-naphthyridine-3-carboxamide], which IC50 is on record?
Answer: Its IC50 is < 10 nM.

Question: Which IC50 does the source give for `C[C@H]1CCN1c1cc2ncc(C(=O)N[C@@H]3C(=O)NCC3(C)C)cc2cn1` [Example 78, N—((S)-4,4-Dimethyl-2-oxopyrrolidin-3-yl)-7-((S)-2-methylazetidin-1-yl)-1,6-naphthyridine-3-carboxamide] here?
Answer: The IC50 was 100 to 1000 nM.
